Drawing on article PMC2096529 (Purinergic Signalling, 2005), this text covers EC50 for 16 compounds.

Some targets named below: human P2Y6 receptor (Homo sapiens, UniProt Q15077); human P2Y2 receptor (Homo sapiens, UniProt P41231); human P2Y1 receptor (Homo sapiens, UniProt P47900); human P2Y4 receptor (Homo sapiens, UniProt P51582).
What all share (experiment): Fluo-3 calcium mobilization, FLIPR, […]1 cells
Holding throughout (format): cell-based

Structures are written as SMILES. pEC50: −log10 of the molar value.

human P2Y2 receptor, sequence (P41231 whole entry): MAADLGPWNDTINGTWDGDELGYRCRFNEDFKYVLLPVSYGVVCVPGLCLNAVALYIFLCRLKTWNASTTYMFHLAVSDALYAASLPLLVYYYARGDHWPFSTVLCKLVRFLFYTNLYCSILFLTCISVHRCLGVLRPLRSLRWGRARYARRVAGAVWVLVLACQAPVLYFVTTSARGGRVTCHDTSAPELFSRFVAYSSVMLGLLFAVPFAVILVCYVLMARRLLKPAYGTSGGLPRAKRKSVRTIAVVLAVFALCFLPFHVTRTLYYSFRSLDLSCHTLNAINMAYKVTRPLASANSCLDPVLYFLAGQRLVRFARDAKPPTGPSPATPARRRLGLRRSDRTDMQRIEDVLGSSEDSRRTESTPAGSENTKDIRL
human P2Y4 receptor, sequence (P51582 whole entry): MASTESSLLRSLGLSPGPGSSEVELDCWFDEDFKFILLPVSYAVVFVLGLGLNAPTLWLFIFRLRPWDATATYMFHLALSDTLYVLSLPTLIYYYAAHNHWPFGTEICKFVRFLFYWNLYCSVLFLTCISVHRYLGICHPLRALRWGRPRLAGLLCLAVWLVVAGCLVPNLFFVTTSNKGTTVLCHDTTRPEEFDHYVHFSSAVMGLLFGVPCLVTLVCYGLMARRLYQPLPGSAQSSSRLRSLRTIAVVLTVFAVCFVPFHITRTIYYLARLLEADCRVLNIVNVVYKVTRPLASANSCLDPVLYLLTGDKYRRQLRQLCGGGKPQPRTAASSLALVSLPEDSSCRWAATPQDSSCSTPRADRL
human P2Y1 receptor, sequence (P47900 whole entry): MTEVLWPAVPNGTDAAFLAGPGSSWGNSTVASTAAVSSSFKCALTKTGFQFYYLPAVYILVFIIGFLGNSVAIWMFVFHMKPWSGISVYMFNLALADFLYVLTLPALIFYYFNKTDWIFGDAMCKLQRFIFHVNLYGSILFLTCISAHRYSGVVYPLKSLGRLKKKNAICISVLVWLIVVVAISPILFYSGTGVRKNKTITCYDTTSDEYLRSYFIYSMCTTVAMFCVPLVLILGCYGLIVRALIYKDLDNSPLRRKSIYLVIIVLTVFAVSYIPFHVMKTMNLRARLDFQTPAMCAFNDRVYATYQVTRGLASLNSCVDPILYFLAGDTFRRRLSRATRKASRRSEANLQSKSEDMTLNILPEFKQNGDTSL
human P2Y6 receptor, sequence (Q15077 whole entry): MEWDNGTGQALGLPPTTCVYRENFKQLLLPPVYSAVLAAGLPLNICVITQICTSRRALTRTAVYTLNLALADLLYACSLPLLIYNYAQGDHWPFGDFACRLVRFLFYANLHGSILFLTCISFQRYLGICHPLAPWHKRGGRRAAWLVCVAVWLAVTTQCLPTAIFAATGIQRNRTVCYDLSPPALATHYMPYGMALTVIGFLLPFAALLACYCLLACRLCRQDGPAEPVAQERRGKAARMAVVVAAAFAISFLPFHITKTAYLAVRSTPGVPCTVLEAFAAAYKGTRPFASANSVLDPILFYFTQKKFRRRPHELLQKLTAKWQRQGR

For the compound `Nc1ccn([C@@H]2O[C@H](COP(=O)(O)OP(=O)(O)OC[C@H]3O[C@@H](n4cnc5c(N)ncnc54)[C@H](O)[C@@H]3O)[C@@H](O)[C@H]2O)c(=O)n1` [compound 15, AP2C], the pEC50 (commonly the negative decadic logarithm of the EC50, by convention in mol/L) at human P2Y6 receptor was 4.73; at human P2Y2 receptor, 5.16; on human P2Y1 receptor it was 5.68.
As to `Nc1nc2c(ncn2[C@@H]2O[C@H](COP(=O)(O)OP(=O)(O)OC[C@H]3O[C@@H](n4cnc5c(N)ncnc54)[C@H](O)[C@@H]3O)[C@@H](O)[C@H]2O)c(=O)[nH]1` [compound 16, AP2G], the pEC50 at human P2Y6 receptor is 5.04; at human P2Y2 receptor, 5.89; on human P2Y1 receptor, 4.58; on human P2Y4 receptor, 5.82.
On to `Nc1nc2c(ncn2[C@H]2C[C@H](O)[C@@H](COP(=O)(O)OP(=O)(O)OC[C@H]3O[C@@H](n4cnc5c(N)ncnc54)[C@H](O)[C@@H]3O)O2)c(=O)[nH]1` [compound 17, AP2dG], for which the results for the pEC50 at human P2Y6 receptor and on human P2Y1 receptor were less than 5.00 and 4.61, respectively.
Regarding `Nc1nc2c(ncn2[C@H]2C[C@H](O)[C@@H](COP(=O)(O)OP(=O)(O)OC[C@H]3O[C@@H](n4ccc(=O)[nH]c4=O)[C@H](O)[C@@H]3O)O2)c(=O)[nH]1` [compound 20, UP2dG], the pEC50 is less than 5.00 on human P2Y6 receptor, 4.54 at human P2Y2 receptor and less than 5.00 on human P2Y1 receptor.
For the compound `O=c1[nH]c(=S)ccn1[C@@H]1O[C@H](COP(=O)(O)OP(=O)(O)OC[C@H]2O[C@@H](n3ccc(=S)[nH]c3=O)[C@H](O)[C@@H]2O)[C@@H](O)[C@H]1O` [compound 23, 4-thioUP24-thioU], the pEC50 is 4.60 at human P2Y6 receptor, 4.54 on human P2Y2 receptor, less than 5.00 on human P2Y1 receptor and 4.47 on human P2Y4 receptor.
Regarding `Nc1ncnc2c1ncn2[C@@H]1O[C@H](COP(=O)(O)OP(=O)(O)OP(=O)(O)OC[C@H]2O[C@@H](n3ccc(=O)[nH]c3=O)[C@H](O)[C@@H]2O)[C@@H](O)[C@H]1O` [compound 26, AP3U], the values for the pEC50 on human P2Y6 receptor, at human P2Y2 receptor and at human P2Y1 receptor were 6.77, 5.70 and 7.41, respectively.
The corresponding values for `Nc1ccn([C@@H]2O[C@H](COP(=O)(O)OP(=O)(O)OP(=O)(O)OC[C@H]3O[C@@H](n4cnc5c(N)ncnc54)[C@H](O)[C@@H]3O)[C@@H](O)[C@H]2O)c(=O)n1` [compound 27, AP3C] are less than 5.00, 5.22 and 7.07.
On to `Nc1nc2c(ncn2[C@@H]2O[C@H](COP(=O)(O)OP(=O)(O)OP(=O)(O)OC[C@H]3O[C@@H](n4cnc5c(N)ncnc54)[C@H](O)[C@@H]3O)[C@@H](O)[C@H]2O)c(=O)[nH]1` [compound 28, AP3G], for which the negative-log EC50 (pEC50) on human P2Y6 receptor was 5.82; at human P2Y2 receptor, 6.64; at human P2Y1 receptor, 6.92; on human P2Y4 receptor it was 6.28.
For `Nc1ncnc2c1ncn2[C@@H]1O[C@H](COP(=O)(O)OP(=O)(O)OP(=O)(O)OC[C@H]2O[C@@H](n3cnc4c(=O)[nH]cnc43)[C@H](O)[C@@H]2O)[C@@H](O)[C@H]1O` [compound 29, AP3I], in that order: 5.97, 5.92, 6.96 and 5.59.
For `Nc1ccn([C@@H]2O[C@H](COP(=O)(O)OP(=O)(O)OP(=O)(O)OC[C@H]3O[C@@H](n4ccc(=O)[nH]c4=O)C[C@@H]3O)[C@@H](O)[C@H]2O)c(=O)n1` [compound 36, CP3dU], the pEC50 was 6.09 on human P2Y6 receptor, 5.51 on human P2Y2 receptor, 4.77 at human P2Y1 receptor and 4.40 on human P2Y4 receptor.
Consider `Nc1ncnc2c1ncn2[C@@H]1O[C@H](COP(=O)(O)OP(=O)(O)OP(=O)(O)OP(=O)(O)OC[C@H]2O[C@@H](n3cnc4c(N)ncnc43)[C@H](O)[C@@H]2O)[C@@H](O)[C@H]1O` [compound 39, AP4A], for which the pEC50 on human P2Y2 receptor is 7.27; at human P2Y1 receptor it was 6.49.
As to `Nc1ncnc2c1ncn2[C@@H]1O[C@H](COP(=O)(O)OP(=O)(O)OP(=O)(O)OP(=O)(O)OC[C@H]2O[C@@H](n3ccc(=O)[nH]c3=O)[C@H](O)[C@@H]2O)[C@@H](O)[C@H]1O` [compound 40, AP4U], the figures for the pEC50 at human P2Y2 receptor, at human P2Y1 receptor and at human P2Y4 receptor were 6.46, 5.32 and 5.84, respectively.
In the case of `Nc1ccn([C@@H]2O[C@H](COP(=O)(O)OP(=O)(O)OP(=O)(O)OP(=O)(O)OC[C@H]3O[C@@H](n4cnc5c(N)ncnc54)[C@H](O)[C@@H]3O)[C@@H](O)[C@H]2O)c(=O)n1` [compound 41, AP4C], the negative-log EC50 (pEC50) at human P2Y2 receptor is 6.82; on human P2Y1 receptor it was 6.12.
The corresponding values for `Nc1ncnc2c1ncn2[C@@H]1O[C@H](COP(=O)(O)OP(=O)(O)OP(=O)(O)OP(=O)(O)OC[C@H]2O[C@@H](n3cnc4c(=O)[nH]cnc43)[C@H](O)[C@@H]2O)[C@@H](O)[C@H]1O` [compound 42, AP4I] are 6.77 and 6.26.
As for `Nc1ccn([C@@H]2O[C@H](COP(=O)(O)OP(=O)(O)OP(=O)(O)OP(=O)(O)OC[C@H]3O[C@@H](n4ccc(=O)[nH]c4=O)[C@H](O)[C@@H]3O)[C@@H](O)[C@@H]2O)c(=O)n1` [compound 50, UP4araC], the pEC50 at human P2Y6 receptor is 5.48; on human P2Y2 receptor, 6.23; on human P2Y1 receptor, 5.21; on human P2Y4 receptor, 6.66.
For `Nc1ncnc2c1ncn2[C@H]1C[C@H](O)[C@@H](COP(=O)(O)OP(=O)(O)OP(=O)(O)OP(=O)(O)OC[C@H]2O[C@@H](n3ccc(=O)[nH]c3=O)[C@H](O)[C@@H]2O)O1` [compound 52, UP4dA], in that order: 5.38, 7.30, 5.46 and 7.15.
